In US12551447B2, “Combination solid oral dosage forms of gonadotropin-releasing hormone antagonists” (Sumitomo Pharma Co., Ltd., priority 2020, dated 2026):

Test: BioPharmaceutical Classification System (BCS) solubility and permeability class
Format: physicochemical
Conditions: BCS 4 = poorly soluble and poor permeability
Description: The BioPharmaceutical Classification System (BCS) classifies drug substances as to their solubility and permeability. For example, a drug substance is considered highly soluble when the highest dose strength is soluble in ≤250 ml water over a pH range of 1-7, and highly permeable when the extent of absorption in humans is determined to be >90% of an administered dose, in comparison to an intravenous reference dose. A BCS 1 compound is highly soluble and highly permeable, while a BCS 4 compound is poorly soluble and has poor permeability. For BCS 4 compounds, bioavailability and the pharmacokinetic (PK) profile or parameters, such as mean maximum plasma concentration (Cmax), mean time to maximum plasma concentration (Tmax) and mean area under the plasma concentration vs. time curve (AUC) after oral administration, can be positively or negatively impacted by the formulation, the type of the excipients selected and the specific excipients. The safety and efficacy of the fixed combination oral product depends on these PK parameters being in the appropriate range. Compound 1 is a BCS 4 compound and therefore for fixed combination oral products having compound 1, or a corresponding amount of a pharmaceutically acceptable salt thereof, the type and specifics of the excipients must be carefully selected so as to achieve the target pharmacokinetic parameters.

## CONC(=O)Nc1ccc(-c2sc3c(c2CN(C)C)c(=O)n(-c2ccc(OC)nn2)c(=O)n3Cc2c(F)cccc2F)cc1 [Compound 1, N-(4-(1-(2,6-difluorobenzyl)-5-((dimethylamino)methyl)-3-(6-methoxy-3-pyr-idazinyl)-2,4-dioxo-1,2,3,4-tetrahydrothieno[2,3-d]pyrimidin-6-yl)phenyl)-N′-methoxyurea]
  BCS class: BCS 4
